What was measured:
male CD-1 mice [1] = test: acute toxicity, single intraperitoneal dose; format: in vivo; settings: 1000 mg./kg. single i.p. dose, 0.6% Tween 20, 10 mice per group, observed one week
Experimental: The compounds were tested for acute toxicity in the following manner. Healthy male CD-1 mice (20-25 g.), 10 mice per group, received a single high dose of drug by intraperitoneal administration (1000 mg./kg., in 0.6% Tween 20, at a concentration of 70 mg./ml.). (Tween 20, polyoxyethylene sorbitan monolaurate, available from Atlas Chemical Industries, Inc.). The animals were observed continuously for at least two hours, again at 24 hours and daily thereafter for one week. Controls received vehicle alone, […]. and were asymptomatic throughout. The compounds tested and the widely varying mortality rates observed are tabulated below.

male CD-1 mice [2] = test: seven-day chronic toxicity test (hepatotoxicity); format: in vivo; settings: 500 mg./kg. daily orally in 0.1% methyl cellulose for 5 days
dogs = test: oral administration at high dose to dogs, toxicity; format: in vivo; settings: 250 mg./kg.
rats = test: oral administration at high dose to rats, toxicity; format: in vivo; settings: same high dose as dogs (250 mg./kg.)
[3] = test system: pathogenic cholelithiasis process; settings: in man; cited from earlier work

Compound	Mortality Rate (male CD-1 mice [1])	hepatotoxicity (male CD-1 mice [2])	further results
O=C(NCc1ccccc1)NC(=O)c1cccnc1Cl [2-chloro-N-(benzylaminocarbonyl)nicotinamide]	0/10	no hepatotoxicity	–
O=C(NC(=O)N1CC=CCC1)c1cccnc1 [3-pyridyl, 1-(1,2,3,6-tetrahydropyridyl)]	9/10	–	–
CCCCN(CCCC)C(=O)NC(=O)c1cccnc1 [3-pyridyl, N-(n-C 4 H9)2]	10/10	–	–
CCCCN(CCCC)C(=O)NC(=O)c1cncs1 [5-thiazolyl, N-(n-C 4 H9)2]	4/10	–	–
O=C(NC(=O)N1CC=CCC1)c1ccc(Cl)nc1 [6-Chloro-N-[1-(1,2,3,6-tetrahydropyridyl)carbonyl]nicotinamide]	0/10	produced hepatotoxicity	pathological signs in dogs (dogs): pathological signs suggestive of cardiac impairment; toxic effects in dogs: death (dogs; ten times the projected efficacious dose): death of the dogs; toxicological symptoms in rats (rats): only moderate toxicological symptoms, including lethargy, diminished appetite and weight gain, and slight abnormalities in clinical chemistry
C[C@H](CCC(=O)O)[C@H]1CC[C@H]2[C@@H]3[C@H](O)C[C@@H]4C[C@H](O)CC[C@]4(C)[C@H]3CC[C@]12C [chenodeoxycholic acid]	–	–	prevention and reversal of the pathogenic cholelithiasis process [3]: prevention and even reversal of the pathogenic cholelithiasis process in man
